Experimental data reported in patent publication US11081236B2, “Diagnostic and therapeutic methods for the treatment of breast cancer” (GENENTECH, INC., priority 2018, dated 2021).

Legend:
Format in all cases: cell-based
HCC1500 = assay: RNA sequencing after E2 or DMSO treatment, HCC1500
Protocol: (§1) To derive a transcriptional signature of ER pathway activity, RNA sequencing was performed on seven breast cancer cell lines following treatment with either DMSO or 1 μM estradiol (E2) for 24 hours. Briefly, RNA libraries for cell lines were made with TRUSEQ® RNA sample preparation kit (ILLUMINA®) according to the manufacturer's protocol. The libraries were sequenced on an ILLUMINA® Hi Seq 2000, using 1-4 lanes per cell line. RNA sequencing (RNA-seq) data were analyzed with HTSeqGenie (R package version 3.14.0) in BioConductor (Huber et al. Nature Methods. 112:115-21, 2015) as follows: reads were trimmed to 75 base pairs (bp), filtered for quality and rRNA/adapter contamination, and aligned to the reference genome GRCh38 using GSNAP (Wu et al. Bioinforma Oxf Engl. 26:873-81, 2010). Gene expression was quantified as Reads per Kilobase of exon model per Million mapped reads normalized by size factor (nRPKM), defined as number of reads aligning to a gene in a sample/(total number of uniquely mapped reads for that sample x gene length x size factor). Genes without gene symbol and genes of uncertain function (LOC and Corf symbols) were excluded.

T47D = assay: RNA sequencing after E2 or DMSO treatment, T47D
Protocol: as §1

MCF7 = assay: RNA sequencing after E2 or DMSO treatment, MCF7
Protocol: as §1

EFM19 = assay: RNA sequencing after E2 or DMSO treatment, EFM19
Protocol: as §1

[1] = gene NBEA, 1 μM E2 24 hours vs DMSO
[2] = gene PNPLA7, 1 μM E2 24 hours vs DMSO
[3] = gene PSCA, 1 μM E2 24 hours vs DMSO
[4] = gene SEMASE, 1 μM E2 24 hours vs DMSO
[5] = gene SSPO, 1 μM E2 24 hours vs DMSO
[6] = gene STON1, 1 μM E2 24 hours vs DMSO
[7] = gene TGFB3, 1 μM E2 24 hours vs DMSO
[8] = gene TP53INP1, 1 μM E2 24 hours vs DMSO
[9] = gene TP53INP2, 1 μM E2 24 hours vs DMSO
[10] = gene BAMBI, 1 μM E2 24 hours vs DMSO
[11] = gene BCAS1, 1 μM E2 24 hours vs DMSO
[12] = gene CCNG2, 1 μM E2 24 hours vs DMSO
[13] = gene DDEE4, 1 μM E2 24 hours vs DMSO
[14] = gene EGLN3, 1 μM E2 24 hours vs DMSO
[15] = gene FAM1718, 1 μM E2 24 hours vs DMSO
[16] = gene GRM4, 1 μM E2 24 hours vs DMSO
[17] = gene IL1R1, 1 μM E2 24 hours vs DMSO
[18] = gene LIPH, 1 μM E2 24 hours vs DMSO

## C[C@]12CC[C@@H]3c4ccc(O)cc4CC[C@H]3[C@@H]1CC[C@@H]2O [Compound E2, estradiol]
HCC1500; [1]
  Log2 FC E2 vs no E2: NBEA: −1.190
HCC1500; [2]
  Log2 FC E2 vs no E2: PNPLA7: −1.376
HCC1500; [3]
  Log2 FC E2 vs no E2: PSCA: −1.726
HCC1500; [4]
  Log2 FC E2 vs no E2: SEMASE: −1.058
HCC1500; [5]
  Log2 FC E2 vs no E2: SSPO: −1.304
HCC1500; [6]
  Log2 FC E2 vs no E2: STON1: −1.279
HCC1500; [7]
  Log2 FC E2 vs no E2: TGFB3: −1.214
HCC1500; [8]
  Log2 FC E2 vs no E2: TP53INP1: −1.777
HCC1500; [9]
  Log2 FC E2 vs no E2: TP53INP2: −1.073
T47D; [10]
  Log2 FC E2 vs no E2: BAMBI: −1.394
T47D; [11]
  Log2 FC E2 vs no E2: BCAS1: −2.536
T47D; [12]
  Log2 FC E2 vs no E2: CCNG2: −1.310
T47D; [13]
  Log2 FC E2 vs no E2: DDEE4: −1.878
T47D; [14]
  Log2 FC E2 vs no E2: EGLN3: −2.052
T47D; [15]
  Log2 FC E2 vs no E2: FAM1718: −1.158
T47D; [16]
  Log2 FC E2 vs no E2: GRM4: −1.340
T47D; [17]
  Log2 FC E2 vs no E2: IL1R1: −2.433
T47D; [18]
  Log2 FC E2 vs no E2: LIPH: −1.330
T47D; [1]
  Log2 FC E2 vs no E2: NBEA: −1.368
T47D; [2]
  Log2 FC E2 vs no E2: PNPLA7: −1.211
T47D; [3]
  Log2 FC E2 vs no E2: PSCA: −1.253
T47D; [4]
  Log2 FC E2 vs no E2: SEMASE: −0.741
T47D; [5]
  Log2 FC E2 vs no E2: SSPO: −1.181
T47D; [6]
  Log2 FC E2 vs no E2: STON1: −2.304
T47D; [7]
  Log2 FC E2 vs no E2: TGFB3: −1.263
T47D; [8]
  Log2 FC E2 vs no E2: TP53INP1: −1.363
T47D; [9]
  Log2 FC E2 vs no E2: TP53INP2: −0.959
MCF7; [10]
  Log2 FC E2 vs no E2: BAMBI: −0.571
MCF7; [11]
  Log2 FC E2 vs no E2: BCAS1: −0.981
MCF7; [12]
  Log2 FC E2 vs no E2: CCNG2: −1.267
MCF7; [13]
  Log2 FC E2 vs no E2: DDEE4: −1.080
MCF7; [14]
  Log2 FC E2 vs no E2: EGLN3: −1.090
MCF7; [15]
  Log2 FC E2 vs no E2: FAM1718: −1.287
MCF7; [16]
  Log2 FC E2 vs no E2: GRM4: −1.106
MCF7; [17]
  Log2 FC E2 vs no E2: IL1R1: −2.160
MCF7; [18]
  Log2 FC E2 vs no E2: LIPH: −1.170
MCF7; [1]
  Log2 FC E2 vs no E2: NBEA: −1.132
MCF7; [2]
  Log2 FC E2 vs no E2: PNPLA7: −1.046
MCF7; [3]
  Log2 FC E2 vs no E2: PSCA: −2.199
MCF7; [4]
  Log2 FC E2 vs no E2: SEMASE: −1.034
MCF7; [5]
  Log2 FC E2 vs no E2: SSPO: −1.338
MCF7; [6]
  Log2 FC E2 vs no E2: STON1: −2.067
MCF7; [7]
  Log2 FC E2 vs no E2: TGFB3: −1.707
MCF7; [8]
  Log2 FC E2 vs no E2: TP53INP1: −1.816
MCF7; [9]
  Log2 FC E2 vs no E2: TP53INP2: −1.207
EFM19; [10]
  Log2 FC E2 vs no E2: BAMBI: −1.554
EFM19; [11]
  Log2 FC E2 vs no E2: BCAS1: −2.189
EFM19; [12]
  Log2 FC E2 vs no E2: CCNG2: −1.442
EFM19; [13]
  Log2 FC E2 vs no E2: DDEE4: −1.101
EFM19; [14]
  Log2 FC E2 vs no E2: EGLN3: −1.008
EFM19; [15]
  Log2 FC E2 vs no E2: FAM1718: −1.910
EFM19; [16]
  Log2 FC E2 vs no E2: GRM4: −1.141
EFM19; [17]
  Log2 FC E2 vs no E2: IL1R1: −2.327
EFM19; [18]
  Log2 FC E2 vs no E2: LIPH: −1.844
EFM19; [1]
  Log2 FC E2 vs no E2: NBEA: −1.105
EFM19; [2]
  Log2 FC E2 vs no E2: PNPLA7: −0.901
EFM19; [3]
  Log2 FC E2 vs no E2: PSCA: −1.593
EFM19; [4]
  Log2 FC E2 vs no E2: SEMASE: −1.100
EFM19; [5]
  Log2 FC E2 vs no E2: SSPO: −0.605
EFM19; [6]
  Log2 FC E2 vs no E2: STON1: −1.500
EFM19; [7]
  Log2 FC E2 vs no E2: TGFB3: −1.350
EFM19; [8]
  Log2 FC E2 vs no E2: TP53INP1: −1.461
EFM19; [9]
  Log2 FC E2 vs no E2: TP53INP2: −1.373
